One test deals with T1, Toll-like receptor 7 (Homo sapiens, UniProt Q9NYK1).
T1 sequence (Q9NYK1 whole entry): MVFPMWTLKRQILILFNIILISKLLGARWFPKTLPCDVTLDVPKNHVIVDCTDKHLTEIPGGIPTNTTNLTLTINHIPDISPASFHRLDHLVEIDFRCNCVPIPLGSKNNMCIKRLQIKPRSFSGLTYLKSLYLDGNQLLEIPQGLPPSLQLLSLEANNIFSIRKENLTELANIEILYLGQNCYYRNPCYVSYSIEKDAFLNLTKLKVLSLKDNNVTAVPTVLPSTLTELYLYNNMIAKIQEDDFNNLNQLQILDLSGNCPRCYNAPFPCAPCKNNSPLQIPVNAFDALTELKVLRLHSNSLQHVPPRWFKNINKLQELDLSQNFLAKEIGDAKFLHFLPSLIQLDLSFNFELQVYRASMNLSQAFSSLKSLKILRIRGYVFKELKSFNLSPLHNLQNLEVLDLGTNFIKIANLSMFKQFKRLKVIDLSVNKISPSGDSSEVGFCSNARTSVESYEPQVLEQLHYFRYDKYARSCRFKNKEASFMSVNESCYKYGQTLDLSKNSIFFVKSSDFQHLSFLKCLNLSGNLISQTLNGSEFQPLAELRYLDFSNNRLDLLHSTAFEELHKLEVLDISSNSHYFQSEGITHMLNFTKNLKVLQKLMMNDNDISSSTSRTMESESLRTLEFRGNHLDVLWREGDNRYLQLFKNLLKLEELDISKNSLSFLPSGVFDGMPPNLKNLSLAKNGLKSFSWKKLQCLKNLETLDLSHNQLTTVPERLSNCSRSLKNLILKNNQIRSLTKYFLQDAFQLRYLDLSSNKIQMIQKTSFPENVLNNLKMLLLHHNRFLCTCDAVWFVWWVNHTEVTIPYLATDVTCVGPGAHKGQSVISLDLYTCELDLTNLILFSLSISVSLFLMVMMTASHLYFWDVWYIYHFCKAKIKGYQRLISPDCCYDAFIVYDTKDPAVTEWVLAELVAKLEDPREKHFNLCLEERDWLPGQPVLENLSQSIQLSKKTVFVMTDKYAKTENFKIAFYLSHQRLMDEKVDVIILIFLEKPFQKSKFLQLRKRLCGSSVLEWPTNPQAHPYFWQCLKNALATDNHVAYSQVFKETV
The test can be described thus: Agonist activity at TLR7 in human U2OS cells. Type of test: cell-based.

Another test has as its target T2, Toll-like receptor 8 (Homo sapiens, UniProt Q9NR97).
T2 sequence (Q9NR97 whole entry): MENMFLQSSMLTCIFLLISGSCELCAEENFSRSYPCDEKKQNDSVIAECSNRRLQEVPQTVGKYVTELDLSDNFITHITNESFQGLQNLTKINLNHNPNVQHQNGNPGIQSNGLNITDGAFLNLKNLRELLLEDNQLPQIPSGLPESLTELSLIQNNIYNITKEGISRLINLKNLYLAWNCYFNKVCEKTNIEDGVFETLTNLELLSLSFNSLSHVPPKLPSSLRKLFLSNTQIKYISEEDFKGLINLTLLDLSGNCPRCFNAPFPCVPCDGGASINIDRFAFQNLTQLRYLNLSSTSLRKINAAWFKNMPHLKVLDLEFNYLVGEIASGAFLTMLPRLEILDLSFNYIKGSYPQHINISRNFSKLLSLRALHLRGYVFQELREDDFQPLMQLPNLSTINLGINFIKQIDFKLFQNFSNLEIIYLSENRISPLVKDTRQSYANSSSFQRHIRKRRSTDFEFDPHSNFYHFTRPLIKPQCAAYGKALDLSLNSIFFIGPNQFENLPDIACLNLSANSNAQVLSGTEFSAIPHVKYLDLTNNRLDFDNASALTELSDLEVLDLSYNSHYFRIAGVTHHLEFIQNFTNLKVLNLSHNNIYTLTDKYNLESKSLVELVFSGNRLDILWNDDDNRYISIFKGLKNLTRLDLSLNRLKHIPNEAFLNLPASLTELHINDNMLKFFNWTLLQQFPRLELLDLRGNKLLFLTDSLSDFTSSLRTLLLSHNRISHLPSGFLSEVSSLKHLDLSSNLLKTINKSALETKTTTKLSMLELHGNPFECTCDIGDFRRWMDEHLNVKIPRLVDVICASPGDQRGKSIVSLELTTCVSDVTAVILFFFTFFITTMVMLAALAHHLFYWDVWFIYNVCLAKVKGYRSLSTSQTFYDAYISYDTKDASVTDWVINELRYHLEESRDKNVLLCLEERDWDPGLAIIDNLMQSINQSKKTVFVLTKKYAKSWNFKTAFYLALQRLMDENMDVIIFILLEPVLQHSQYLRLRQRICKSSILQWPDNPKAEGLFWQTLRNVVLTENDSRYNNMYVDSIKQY
Briefly: Agonist activity at TLR8 (unknown origin) expressed in human U2OS cells by luciferase reporter assay. The format is cell-based.

As usually defined, the EC50 is the concentration giving half of the maximal effect. Read a low EC50 as an effect from little substance. For the compound `CCC[C@H](C)Oc1nc(N)c2[nH]c(=O)n(CCCCCN3CCCCC3)c2n1` [GSK-2245035], the results for the EC50 at Toll-like receptor 7 and on Toll-like receptor 8 were 2 µM and 20 µM, respectively.

The values are drawn from ChEMBL document CHEMBL5252515, “Discovery of 6-Amino-2-{[(1S)-1-methylbutyl]oxy}-9-[5-(1-piperidinyl)pentyl]-7,9-dihydro-8H-purin-8-one (GSK2245035), a Highly Potent and Selective Intranasal Toll-Like Receptor 7 Agonist for the Treatment of Asthma” (J Med Chem, 2016).
